Measured values published in the supplement of paper PMC10307832.

Assays:
Experiment in all cases: relative viability (nuclei count vs DMSO), 5 days (fraction); higher = more cells survive
ABC-1 = tested on: ABC-1
In short: (§1)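 A single step with final 0.05% Triton X-100, 1% formaldehyde and 1 ug/ml Hoechst fixed the cells and stained nuclei 5 days after treatment. Lung cancer cell lines in 1536-well plates had been treated by pin tool the day after seeding with one drug alone or a fixed anchor-drug dose plus five library-drug doses (not always all listed) in √10 steps, and nuclei were counted on 4× images. Relative viability is the ratio of nuclei in treated wells to nuclei in vehicle wells, taken as the median of duplicate plates.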

CAL-12T = tested on: CAL-12T
In short: as §1

ChaGo-K-1 = tested on: ChaGo-K-1
In short: as §1

HCC-366 = tested on: HCC-366
In short: as §1

HCC-78 = tested on: HCC-78
In short: as §1

LC-2-ad = tested on: LC-2-ad
In short: as §1

LOU-NH91 = tested on: LOU-NH91
In short: as §1

LU99A = tested on: LU99A
In short: as §1

NCI-H1395 = tested on: NCI-H1395
In short: as §1

NCI-H1651 = tested on: NCI-H1651
In short: as §1

NCI-H1734 = tested on: NCI-H1734
In short: as §1

NCI-H1755 = tested on: NCI-H1755
In short: as §1

NCI-H1793 = tested on: NCI-H1793
In short: as §1

NCI-H1944 = tested on: NCI-H1944
In short: as §1

NCI-H2087 = tested on: NCI-H2087
In short: as §1

NCI-H2170 = tested on: NCI-H2170
In short: as §1

NCI-H2405 = tested on: NCI-H2405
In short: as §1

NCI-H3122 = tested on: NCI-H3122
In short: as §1

NCI-H460 = tested on: NCI-H460
In short: as §1

PC-3 [JPC-3] = tested on: PC-3 [JPC-3]
In short: as §1

RERF-LC-KJ = tested on: RERF-LC-KJ
In short: as §1

Compound: CC1(C)CCC(c2ccc(Cl)cc2)=C(CN2CCN(c3ccc(C(=O)NS(=O)(=O)c4ccc(N[C@H](CCN5CCOCC5)CSc5ccccc5)c(S(=O)(=O)C(F)(F)F)c4)cc3)CC2)C1 [Navitoclax] + NC(=O)Nc1cc(-c2cccc(F)c2)sc1C(=O)N[C@H]1CCCNC1 [AZD7762] (partner 0.2 µM)
- relative viability (ABC-1; first compound 0.005 µM): 0.816
- relative viability (ABC-1; first compound 0.01581 µM): 1.22
- relative viability (ABC-1; first compound 0.1581 µM): 0.687
- relative viability (ABC-1; first compound 0.5 µM): 0.72
- relative viability (CAL-12T; first compound 0.005 µM): 0.626
- relative viability (CAL-12T; first compound 0.01581 µM): 0.593
- relative viability (CAL-12T; first compound 0.05 µM): 0.627
- relative viability (CAL-12T; first compound 0.1581 µM): 0.619
- relative viability (CAL-12T; first compound 0.5 µM): 0.541
- relative viability (ChaGo-K-1; first compound 0.005 µM): 0.879
- relative viability (ChaGo-K-1; first compound 0.01581 µM): 0.875
- relative viability (ChaGo-K-1; first compound 0.05 µM): 0.655
- relative viability (ChaGo-K-1; first compound 0.1581 µM): 0.883
- relative viability (ChaGo-K-1; first compound 0.5 µM): 0.803
- relative viability (HCC-366; first compound 0.005 µM): 0.27
- relative viability (HCC-366; first compound 0.01581 µM): 0.296
- relative viability (HCC-366; first compound 0.1581 µM): 0.197
- relative viability (HCC-366; first compound 0.5 µM): 0.214
- relative viability (HCC-78; first compound 0.005 µM): 0.985
- relative viability (HCC-78; first compound 0.01581 µM): 0.612
- relative viability (HCC-78; first compound 0.05 µM): 0.508
- relative viability (HCC-78; first compound 0.1581 µM): 0.607
- relative viability (HCC-78; first compound 0.5 µM): 0.667
- relative viability (LC-2-ad; first compound 0.005 µM): 0.835
- relative viability (LC-2-ad; first compound 0.01581 µM): 0.957
- relative viability (LC-2-ad; first compound 0.05 µM): 0.796
- relative viability (LC-2-ad; first compound 0.1581 µM): 0.815
- relative viability (LC-2-ad; first compound 0.5 µM): 0.822
- relative viability (LOU-NH91; first compound 0.005 µM): 0.746
- relative viability (LOU-NH91; first compound 0.01581 µM): 0.792
- relative viability (LOU-NH91; first compound 0.05 µM): 0.656
- relative viability (LOU-NH91; first compound 0.1581 µM): 0.535
- relative viability (LOU-NH91; first compound 0.5 µM): 0.306
- relative viability (LU99A; first compound 0.005 µM): 0.414
- relative viability (LU99A; first compound 0.01581 µM): 0.466
- relative viability (LU99A; first compound 0.1581 µM): 0.43
- relative viability (LU99A; first compound 0.5 µM): 0.439
- relative viability (NCI-H1395; first compound 0.005 µM): 0.368
- relative viability (NCI-H1395; first compound 0.01581 µM): 0.41
- relative viability (NCI-H1395; first compound 0.05 µM): 0.357
- relative viability (NCI-H1395; first compound 0.1581 µM): 0.385
- relative viability (NCI-H1395; first compound 0.5 µM): 0.405
- relative viability (NCI-H1651; first compound 0.005 µM): 0.485
- relative viability (NCI-H1651; first compound 0.01581 µM): 0.488
- relative viability (NCI-H1651; first compound 0.05 µM): 0.335
- relative viability (NCI-H1651; first compound 0.1581 µM): 0.474
- relative viability (NCI-H1651; first compound 0.5 µM): 0.466
- relative viability (NCI-H1734; first compound 0.005 µM): 0.533
- relative viability (NCI-H1734; first compound 0.01581 µM): 0.555
- relative viability (NCI-H1734; first compound 0.1581 µM): 0.543
- relative viability (NCI-H1734; first compound 0.5 µM): 0.506
- relative viability (NCI-H1755; first compound 0.005 µM): 0.426
- relative viability (NCI-H1755; first compound 0.01581 µM): 0.462
- relative viability (NCI-H1755; first compound 0.05 µM): 0.322
- relative viability (NCI-H1755; first compound 0.1581 µM): 0.439
- relative viability (NCI-H1755; first compound 0.5 µM): 0.474
- relative viability (NCI-H1793; first compound 0.005 µM): 0.488
- relative viability (NCI-H1793; first compound 0.01581 µM): 0.613
- relative viability (NCI-H1793; first compound 0.1581 µM): 0.402
- relative viability (NCI-H1793; first compound 0.5 µM): 0.246
- relative viability (NCI-H1944; first compound 0.005 µM): 0.52
- relative viability (NCI-H1944; first compound 0.01581 µM): 0.637
- relative viability (NCI-H1944; first compound 0.1581 µM): 0.489
- relative viability (NCI-H1944; first compound 0.5 µM): 0.582
- relative viability (NCI-H2087; first compound 0.005 µM): 1.18
- relative viability (NCI-H2087; first compound 0.01581 µM): 1.38
- relative viability (NCI-H2087; first compound 0.1581 µM): 1.29
- relative viability (NCI-H2087; first compound 0.5 µM): 1.41
- relative viability (NCI-H2170; first compound 0.005 µM): 0.883
- relative viability (NCI-H2170; first compound 0.01581 µM): 0.912
- relative viability (NCI-H2170; first compound 0.05 µM): 0.845
- relative viability (NCI-H2170; first compound 0.1581 µM): 0.798
- relative viability (NCI-H2170; first compound 0.5 µM): 0.623
- relative viability (NCI-H2405; first compound 0.005 µM): 0.703
- relative viability (NCI-H2405; first compound 0.01581 µM): 0.857
- relative viability (NCI-H2405; first compound 0.05 µM): 0.622
- relative viability (NCI-H2405; first compound 0.1581 µM): 0.698
- relative viability (NCI-H2405; first compound 0.5 µM): 0.653
- relative viability (NCI-H3122; first compound 0.005 µM): 0.982
- relative viability (NCI-H3122; first compound 0.01581 µM): 0.971
- relative viability (NCI-H3122; first compound 0.05 µM): 0.895
- relative viability (NCI-H3122; first compound 0.1581 µM): 0.973
- relative viability (NCI-H3122; first compound 0.5 µM): 0.985
- relative viability (NCI-H460; first compound 0.005 µM): 0.575
- relative viability (NCI-H460; first compound 0.01581 µM): 0.622
- relative viability (NCI-H460; first compound 0.05 µM): 0.322
- relative viability (NCI-H460; first compound 0.1581 µM): 0.573
- relative viability (NCI-H460; first compound 0.5 µM): 0.532
- relative viability (PC-3 [JPC-3]; first compound 0.005 µM): 0.726
- relative viability (PC-3 [JPC-3]; first compound 0.01581 µM): 0.972
- relative viability (PC-3 [JPC-3]; first compound 0.05 µM): 0.483
- relative viability (PC-3 [JPC-3]; first compound 0.1581 µM): 0.702
- relative viability (PC-3 [JPC-3]; first compound 0.5 µM): 0.759
- relative viability (RERF-LC-KJ; first compound 0.005 µM): 1
- relative viability (RERF-LC-KJ; first compound 0.01581 µM): 1.08
- relative viability (RERF-LC-KJ; first compound 0.05 µM): 0.824
- relative viability (RERF-LC-KJ; first compound 0.1581 µM): 1.12
- relative viability (RERF-LC-KJ; first compound 0.5 µM): 0.921
